Here are results for 2 compounds from patent US20230416299A1, “COMPOUND AND METHOD FOR THE TREATMENT AND DIAGNOSIS OF NEURODEGENERATIVE CONDITIONS” (Swansea University, priority 2013, published 2023).

In series [1] the test system is Islet-1:GFP transgenic zebrafish embryos. The series is classed as in vivo. The protocol:
Quantitative PCR. Total RNA was extracted from SN4741 cells and zebrafish treated with the compounds of interest using the RNeasy Mini Kit (Qiagen), 1 μg was treated with RQ1 RNase-free DNase (Promega) and reverse transcribed using Superscript II Reverse Transcriptase (Invitrogen) and random primers (Invitrogen) (RT+ reaction). Parallel reactions without reverse transcriptase enzyme were done as a control (RT− reaction), and Sybergreen real-time quantitative PCR assays were performed. Expression levels were obtained by normalization with the value of the housekeeping gene encoding actin obtained for every sample in parallel assays.
Zebrafish Strain and Mainrenance Zebrafish were raised on a 14/10 h day/night cycle and were kept at 28.5° C. Islet-1:GFP transgenic embryos were obtained via natural spawning and staged in hours or days post fertilization (hpf and dpf) according to Kimmel et al). Embryos older than 24 hpf were treated with 0.03% phenylthiourea (PTU) to inhibit pigmentation. MO injections were performed using splice site specific zebrafish 1xr MO. MO injected embryos were immediately dechorionated and transferred to a 96 well plate and exposed to dimethyl sulfoxide (DMSO) treated or ligand treated medium.
Compound Exposure. Islet-1:GFP embryos were collected by natural mating and immediately (at 1 cell stage) dechorionated and transferred to a 96 well plate. Each of the compounds tested were obtained as 10 mM stock and diluted in embryo medium to a final concentration of 10 μM, and 200 μL was added to each well. DMSO or propan-2-ol treated embryo medium was taken as control. Ligand solutions were replaced every 12 h with fresh ligand solution prepared in PTU treated embryo medium. Embryos were collected at 48 hpf, fixed for 4 h at room temperature with 4% paraformaldehyde and then washed and kept in PBST. Immunocytochemistry was performed using an anti-GFP antibody and fluorescence was viewed and photographed using a Zeiss Axioplan compound microscope and a Zeiss Axiocam digital camera.

The test system of series [2] is mouse E11.5 brain primary cultures. The series can be described thus: Mouse E11.5 brain primary cultures (Islet1+, active caspase 3+, BrdU, Nkx6.1 counts). It is filed as cell-based. To be noted: for Number of Islet1+ cells: 3 DIV; for Number of active caspase-3+ cells: 10 μM 3β,7α-diHCA, 3βH,7O-CA, 25-HC, low concentrations of 3β,7β-diHCA, 3β-HCA. The protocol: Primary Brain Cultures. Brains from E11.5 mice were manually dissected, plated on poly-D-lysine (150,000 cells/cm2) and grown in serum-free N2 media consisting of 1:1 mixture of F12 and DMEM with 10 ng/mL insulin, 100 μg/mL apo-transferrin, 100 μM putrescine, 20 nM progesterone, 30 nM selenium, 6 mg/mL glucose, and 1 mg/mL BSA. Cells were treated for 3 days in vitro (DIV) with the compounds of interest, fixed with 4% PFA and processed for staining using appropriate antibodies.
For BrdU analysis, cells were treated with BrdU one hour after plating and media was replaced with fresh medium after 16 h. After a further 2 days in culture, cells were treated for 30 min with 2N HCl and then immunocytochemistry was performed to evaluate the number of double BrdU+;Islet1+ cells (a measure of motor neuron neurogenesis). Hoechst staining was performed by permeabilizing cells with a 0.3% Triton-X 100/PBS solution for 5 min followed by incubation with Hoechst 33258 (Sigma) for 10 min.
Antibodies and Detection Procedures. Cells were fixed in 4% PFA, washed in PBS and blocked in 5% normal goat serum/PBS for 1 h at room temperature. Primary antibodies were diluted in PBS (pH 7.4), 0.3% Triton X-100, 1% BSA and incubations were carried out overnight at +4° C. or at room temperature for 2 h. The antibodies used were anti-: BrdU (1:400; Abeam), Islet-1 (1:100; Developmental Studies Hybridoma Bank), cleaved caspase-3 (Asp175) (1:100; Cell Signaling Technology), tyrosine hydroxylase (TH;1:1000; Pel-Freeze) GABA (1:1,000; Sigma), Brn3a (1:250; Millipore), Nkx6.1 (1:200; Novus Biologicals), choline acetyltransferase (ChAT; 1:500; Millipore) and appropriate secondary antibodies (Jackson ImmunoResearch or Alexa). Cells positive for the corresponding marker were counted directly at the microscope at a magnification of 20 x. Cells were counted in every well, in eight consecutive fields (going from one side of the well to the other, passing through the center), in three different wells per experiment and in three different experiments per condition. Random pictures of the wells were taken for every condition to document the result, and representative pictures were subsequently selected to represent the quantitative data. Photos were acquired with a Zeiss Axioplan microscope and a Hamamatsu camera C4742-95 using the Openlab software.

Some results are limits rather than exact numbers.

For `CC(CCC[C@@H](C)[C@H]1CC[C@H]2[C@@H]3CC=C4C[C@@H](O)CC[C@]4(C)[C@H]3CC[C@]12C)C(=O)O` (stereo partly drawn) [3β-HCA, 3β-hydroxycholest-5-en-26-oic acid], the “Toxicity to zebrafish embryos” value in series [1] (10 μM in medium) is “deleterious toxic effect which impaired the survival of the fish”. For the same compound, the “Number of Nkx6.1+ progenitor cells” value in series [2] is “did not affect the number of Nkx6.1+ progenitor cells”. For the same compound, in series [2] (mouse, E11.5 mouse brain primary cultures, 3 days), the “Concentration at which toxicity is initiated (active caspase-3+ cells)” value was determined as 1000 nM. Also, the “Number of Islet1+ cells” value in series [2] (wild type cultures) was “caused the loss of Islet1+ cells in the cultures”. The “Number of active caspase-3+ cells” value in series [2] (wt cultures) is “increased the number of active caspase-3+ cells”.

`CC(CCC[C@@H](C)[C@H]1CC[C@H]2[C@@H]3[C@H](O)C=C4C[C@@H](O)CC[C@]4(C)[C@H]3CC[C@]12C)C(=O)O` (stereo partly drawn) [3β,7α-diHCA, 3β,7α-dihydroxycholest-5-en-26-oic acid]: in series [1] (10 μM), the “Islet-1 mRNA and protein level (qPCR, western blot)” value is “increase in the level of Islet-1 mRNA and protein”; the “abca1 mRNA expression in vivo” value is “enhanced expression of abca1”. Further, in series [1] (10 μM, 48 hpf), the “Islet-GFP expression in cranial nerves” value is reported as “increased Islet-GFP expression” and the “Number of Islet1+ cells in cranial nerves (III, IV, V, VII, X)” value is given as “no significant effect on the number of Islet1+ cells”. In series [1] (10 μM, lxr MO vs control scrambled MO), the “Islet-GFP levels after lxr morpholino (MO) injection” value was “abolished the in vivo increase in Islet-GFP levels”. For the same compound, in series [2], the “Number of Nkx6.1+ progenitor cells” value is recorded as “did not affect the number of Nkx6.1+ progenitor cells” and the “Number of other midbrain neurons (TH+ dopamine, GABAergic, red nucleus)” value is recorded as “did not affect the number of other midbrain neurons”. In addition, in series [2] (10 μM), the “Reduction of neuronal cell death (activated caspase 3) induced by 2 μM 3β,7β-diHCA or 3β-HCA” value is given as “reduced the neuronal cell death” and the “Rescue of loss of Islet1+ cells induced by 2 μM 3β,7β-diHCA or 3β-HCA” value is listed as “reversed the loss of Islet 1+ cells”. For the same compound, the “Effect on active caspase-3+ cells with GGPP” value in series [2] (GGPP 10 μM, 3β,7β-diHCA, 3β-HCA at 2 μM) was “completely blocked by co-incubation with the Lxr inhibitor GGPP”. In addition, the “Number of Islet1+ cells” value in series [2] (wild type cultures) was “increased the number of Islet1+ oculomotor cells in the cultures”. Moreover, in series [2] (wild type cultures, dose response), the “Concentration with significant difference (p<0.05) from vehicle in number of Islet1+ cells” value is not below 5 µM. Also, the “Effect on Islet1+ cells with Lxr antagonist GGPP” value in series [2] (wt cultures, GGPP 10 μM) is “blocked by the Lxr antagonist GGPP”. In addition, the “Number of active caspase-3+ cells” value in series [2] (wt cultures) is “decreased the number of active caspase-3+ cells”.
